Laboratory results reported in patent US20230159931A1, “TARGETING THE PALMOTYLATION/DEPALMOTYLATION CYCLE TO TREAT INFLAMMATORY DISEASES” (CORNELL UNIVERSITY, priority 2020, published 2023).

What was measured:
SMAD2 S-palmitoylation = SMAD2 S-palmitoylation in HEK293T cells treated with APT inhibitors (Alk14, in-gel fluorescence); format: cell-based, human; settings: 10 μM APT inhibitors for 24 hours; HEK293T cells with HA-DHHC7 and Flag-SMAD2
From the text: FIGS. 7A-7G. APT2 is the depalmitylase of SMAD2 and C-terminal phosphorylation of SMAD2 is S-palmitoylation independent. (A) C-terminal phosphorylation (Ser465/Ser467) levels of Flag-SMAD2 (p-SMAD2(C2)) in HEK293T cells expressing HA-tagged mouse DHHC1-23. SMAD2 was pulled down with Flag beads and subjected to western blot analyses. (B) HEK293T cells were transfected with HA-tagged DHHC7 and Flag-SMAD2 WT and C41/81S mutant plasmid and treated with Alk14. The S-palmitoylation level of immunoprecipitated SMAD2 was visualized by in-gel fluorescence and the p-SMAD2(C2) level was detected by western blot analyses. […] The S-palmitoylation level of immunoprecipitated SMAD2 was visualized by in-gel fluorescence. […] The cells were labeled with Alk14 and the S-palmitoylation of SMAD2 was determined by in-gel fluorescence. […] The cells were labeled with Alk14 and the S-palmitoylation of SMAD2 was determined by in-gel fluorescence and the p-SMAD2(C2) level was detected by western blot analyses. […]
Cells were treated with 50 μM palmitic acid analogue Alkyne 14 (Alk14) for 5 h and the collected and lysed in 1% NP-40 lysis buffer (25 mM Tris-HCl pH 8.0, 150 mM NaCl, 10% glycerol, 1% Nonidet P-40) with protease inhibitor cocktail. […] The protein concentration was determined by Bradford assay (23200, Thermo Fisher). […]

APT2 = target: T1, APT2 (Homo sapiens, UniProt O95372); experiment: STAT3 palmitoylation by Alk14 labelling and in-gel fluorescence after APT2 inhibition or knockdown; format: cell-based; settings: DHHC7-knockout HEK293T cells reintroduced with HA-DHHC7 and Flag-STAT3; LYPLA2 siRNA or 20 μM of ML349 for 36 h
T1 construct: treated with LYPLA2 siRNA or 20 μM of ML349 for 36 h before Alk14 labelling; endogenous in cells; host or cells: DHHC7-knockout HEK293T cells re-expressing HA-DHHC7 and Flag-STAT3
From the text: FIGS. 2A-2H. APT2 is a depalmitoylase of STAT3 and palmitoylation/depalmitoylation promotes p-STAT3 nuclear localization. (A) C108 is the major palmitoylation site of STAT3. HEK293T cells were transfected with HA-DHHC7 and Flag-STAT3 (wild-type or mutants) and labelled with Alk14. STAT3 was pulled down and subjected to Alk14 labelling and western blot analyses. (B) Left, distribution of wild-type or C108S mutants of STAT3 and p-STAT3 in the subcellular fractions of DHHC7-knockout HEK293T cells into which DHHC7 or DHHS7 were reintroduced. Right, quantification of the relative p-STAT3 levels. (C) The subcellular localization of STAT3 and p-STAT3 was analysed using confocal imaging after different EGFP-STAT3 constructs and HA-tagged DHHC7 were transfected into DHHC7-knockout HEK293T cells. […] (D) In HEK293T cells, overexpression of wild-type APT2—but not the C2S or S122A mutants—decreased the palmitoylation level of Flag-STAT3 as determined by Alk14 labelling. […] The palmitoylation of STAT3 was determined by in-gel fluorescence (left) and quantified (right). […] DHHC7-knockout HEK293T cells were reintroduced with HA-DHHC7 and Flag-STAT3, and treated with LYPLA2 siRNA or 20 μM of ML349 for 36 h before Alk14 labelling and in-gel fluorescence detection. […] Right, quantification of the relative STAT3 and p-STAT3 levels in these fractions. […] Right, quantification of the relative STAT3 levels in these fractions. […]

T1 sequence (O95372 whole entry): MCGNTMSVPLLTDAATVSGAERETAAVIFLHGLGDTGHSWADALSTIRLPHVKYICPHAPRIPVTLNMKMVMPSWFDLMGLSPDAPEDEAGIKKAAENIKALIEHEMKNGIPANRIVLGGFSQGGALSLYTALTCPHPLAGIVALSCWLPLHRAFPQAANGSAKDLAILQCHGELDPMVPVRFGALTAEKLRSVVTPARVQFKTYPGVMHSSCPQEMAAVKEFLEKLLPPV

`COc1ccc(N2CCN(C(=O)c3cc4c(s3)-c3ccccc3S(=O)(=O)C4)CC2)cc1` [ML349] was tested, and the “SMAD2 S-palmitoylation signal” value (SMAD2 S-palmitoylation) was “significantly enhanced” and the STAT3 palmitoylation (APT2) was “increased STAT3 palmitoylation”.
